This assay addresses Bacterial 70S ribosome. Briefly: Inhibition of Escherichia coli ribosome. It is filed as subcellular.

Molecules are shown by their SMILES. pIC50: −log10 of the molar value.

In the case of `CC[C@H]1OC(=O)[C@H](C)[C@@H](O)[C@H](C)[C@@H](O[C@@H]2O[C@H](C)C[C@H](N(C)C)[C@H]2O)[C@](C)(OC)C[C@@H](C)NC(=O)[C@H](C)[C@@H](O)[C@]1(C)O`, the negative-log IC50 (pIC50) (commonly the negative decadic logarithm of the IC50, by convention in mol/L) was under 4.00.

The molecule `CC[C@H]1OC(=O)[C@H](C)[C@@H](O[C@H]2C[C@@](C)(OC)[C@@H](O)[C@H](C)O2)[C@H](C)[C@@H](O[C@@H]2O[C@H](C)C[C@H](N(C)C)[C@H]2O)[C@](C)(OC)C[C@@H](C)NC(=O)[C@H](C)[C@@H](O)[C@]1(C)O` gave a pIC50 of 7.00.

The molecule `CC[C@H]1OC(=O)[C@H](C)[C@@H](O)[C@H](C)[C@@H](O[C@@H]2O[C@H](C)C[C@H](N(C)C)[C@H]2O)[C@](C)(OC)C[C@@H](C)C(=O)N[C@H](C)[C@@H](O)[C@]1(C)O` showed a pIC50 of under 4.00.

For `CC[C@H]1OC(=O)[C@H](C)[C@@H](O[C@H]2C[C@@](C)(OC)[C@@H](O)[C@H](C)O2)[C@H](C)[C@@H](O[C@@H]2O[C@H](C)C[C@H](N(C)C)[C@H]2O)[C@](C)(OC)C[C@@H](C)C(=O)N[C@H](C)[C@@H](O)[C@]1(C)O`, the negative logarithm of the IC50 (pIC50) was 5.89.

For `CC[C@H]1OC(=O)[C@H](C)[C@@H](O[C@H]2C[C@@](C)(OC)[C@@H](O)[C@H](C)O2)[C@H](C)[C@@H](O[C@@H]2O[C@H](C)C[C@H](N(C)C)[C@H]2O)[C@](C)(O)C[C@@H](C)CN(C)[C@H](C)[C@@H](O)[C@]1(C)O` [AZITHROMYCIN], the pIC50 is 6.52.
